We go through five compounds from patent US20190315806A1, “POLYMYXIN DERIVATIVE, PREPARATION METHOD AND APPLICATION THEREOF” (priority 2016, published 2019).

The structures appear in SMILES notation. ≈ marks a conversion by molar mass, not a printed value. Where a SMILES comes first, the peptide text is derived from it. Bridges are numbered along the chain shown (N, C = ends). [ ]: non-standard residue; d: D form. The star is where a group is joined. dPhe(4-CN) = N#Cc1ccc(C[C@@H](N)C(=O)O)cc1; dPhe(4-NH2) = Nc1ccc(C[C@@H](N)C(=O)O)cc1; X2 = CC[C@H](C)CCCCC(=O)*; Dab = NCC[C@H](N)C(=O)O; X1 = CCCCCC(=O)CC(=O)*; X3 = CCCCC(=O)CC(=O)*

Assay type in all cases: cell-based
The test system of data set [1] is Klebsiella pneumoniae ATCC BAA-2146 (NDM-1). Put plainly: Antibacterial activity, MIC by dish double dilution method. The note with it: ATCC BAA-2146. In short, it runs like this: (§1)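 MIC by CLSI agar (plate) twofold dilution, final compound levels 0.03–128 μg/mL in agar. Overnight cultures in nutrient broth, brain heart infusion or HTM broth were spotted at 10^4 CFU/dot by multipoint inoculator. After 18 to 24 hours at 35° C., MIC taken as lowest concentration showing no colony growth.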

In data set [2] the test system is Staphylococcus epidermidis ATCC 12228. The note with it: ATCC 12228. In short, it runs like this:
as §1

Data set [3] deals with Pseudomonas aeruginosa ATCC 27853. To be noted: ATCC 27853. In short, it runs like this: as §1
For data set [4], the system named is Acinetobacter baumannii ATCC 19606. To be noted: ATCC 19606. In short, it runs like this: as §1
For data set [5], the system named is Escherichia coli ATCC 25922. The note with it: ATCC 25922. The method in brief: as §1
Data set [6] can be described thus: Nephrotoxicity test, renal cytotoxicity by MTT method. The note with it: African green monkey. Here is the method: African green monkey kidney cells (Vero cells) were cultured in MEM medium (Hyclone), 10% fetal calf serum (Invitrogen) was added before use, cultured at 37° C. under 5% CO2.
Experiment was carried out using MTT method. After digestion, cells in logarithmic growth phase were counted, then the cells were inoculated in a 96-well culture plate. After incubation for 24 h to be adherent, cells were treated with a concentration gradient of a compound of the invention (e.g., a compound prepared in the Embodiments) and the controls. After 72 h, the culture solution was removed, 100 uL of MTT reagent at a concentration of 0.5 mg/ml was added, the medium was removed after incubating for 3 hours in a 37° C. incubator. Add 150 μL DMSO solvent to each well, mix for 3 min, after which the absorbance at 570 nm (A) was measured with a microplate reader.
Cell viability %=(Adosed cell−Abackground)/(Acontrol cell−Abackground)×100%. The average value of 3 parallel wells was taken for each detection point, and the inhibition curve was drawn to calculate the IC50 value.
The African green monkey kidney cells (Vero cells) used in the experiment were from the Cell Resource Center of the Institute of Basic Medicine, Chinese Academy of Medical Sciences.

With `CCCCC(=O)CC(=O)N[C@@H](CCN)C(=O)N[C@H](C(=O)N[C@@H](CCN)C(=O)N[C@H]1CCNC(=O)[C@H]([C@@H](C)O)NC(=O)[C@H](CCN)NC(=O)[C@H](CCN)NC(=O)[C@H](CC(C)C)NC(=O)[C@@H](Cc2ccccc2)NC(=O)[C@H](CCN)NC1=O)[C@@H](C)O` [Compound 4, 3-oxoheptanoyl-Dab-Thr-Dab-ring(4-10)[Dab-Dab-D-Phe-Lue-Dab-Dab-Thr]] (X3-[Dab]T[Dab][Dab][Dab][dF]L[Dab][Dab]T; lactam 4-C), in data set [1], the “MIC K. pneumoniae ATCC BAA-2146 (NDM-1)” value turned out to be 2 µg/mL (≈ 1.68 µM). Further, in data set [2], the “MIC S. epidermidis ATCC 12228” value turned out to be 128 µg/mL (≈ 108 µM). In data set [3], the “MIC P. aeruginosa ATCC 27853” value stood at 2 µg/mL (≈ 1.68 µM). In data set [4], the “MIC A. baumannii ATCC 19606” value came to 2 µg/mL (≈ 1.68 µM). Further, the “MIC E. coli ATCC 25922” value in data set [5] is 0.5 µg/mL (≈ 0.42 µM). The IC50 (usually the concentration at which inhibition is half-maximal) at 72 h in data set [6] is 110 ± 9.08 µg/mL (≈ 92.2 µM).
Turning to `CCCCCC(=O)CC(=O)N[C@@H](CCN)C(=O)N[C@H](C(=O)N[C@@H](CCN)C(=O)N[C@H]1CCNC(=O)[C@H]([C@@H](C)O)NC(=O)[C@H](CCN)NC(=O)[C@H](CCN)NC(=O)[C@H](CC(C)C)NC(=O)[C@@H](Cc2ccccc2)NC(=O)[C@H](CCN)NC1=O)[C@@H](C)O` [Compound 5, 3-oxooctanoyl-Dab-Thr-Dab-ring(4-10)[Dab-Dab-D-Phe-Lue-Dab-Dab-Thr]] (X1-[Dab]T[Dab][Dab][Dab][dF]L[Dab][Dab]T; lactam 4-C), in data set [1], the “MIC K. pneumoniae ATCC BAA-2146 (NDM-1)” value was 0.5 µg/mL (≈ 0.415 µM). Moreover, in data set [2], the “MIC S. epidermidis ATCC 12228” value was 32 µg/mL (≈ 26.6 µM). Moreover, the “MIC P. aeruginosa ATCC 27853” value in data set [3] is 1 µg/mL (≈ 0.831 µM). Also, the “MIC A. baumannii ATCC 19606” value in data set [4] turned out to be 2 µg/mL (≈ 1.66 µM). In addition, in data set [5], the “MIC E. coli ATCC 25922” value turned out to be 0.5 µg/mL (≈ 0.415 µM). The compound also showed an IC50 at 72 h in data set [6] of 93.7 ± 7.38 µg/mL (≈ 77.9 µM).
For `CC[C@H](C)CCCCC(=O)N[C@@H](CCN)C(=O)N[C@H](C(=O)N[C@@H](CCN)C(=O)N[C@H]1CCNC(=O)[C@H]([C@@H](C)O)NC(=O)[C@H](CCN)NC(=O)[C@H](CCN)NC(=O)[C@H](CC(C)C)NC(=O)[C@@H](Cc2ccc(N)cc2)NC(=O)[C@H](CCN)NC1=O)[C@@H](C)O` [Compound 11, (S)-6-methyloctanoyl-Dab-Thr-Dab-ring(4-10)[Dab-Dab-D-Phe(4-NH2)-Lue-Dab-Dab-Thr]] (X2-[Dab]T[Dab][Dab][Dab][dPhe(4-NH2)]L[Dab][Dab]T; lactam 4-C), the “MIC K. pneumoniae ATCC BAA-2146 (NDM-1)” value in data set [1] was found to be 2 µg/mL (≈ 1.64 µM). In addition, the “MIC S. epidermidis ATCC 12228” value in data set [2] was found to be 128 µg/mL (≈ 105 µM). For the same compound, the “MIC P. aeruginosa ATCC 27853” value in data set [3] came out at 2 µg/mL (≈ 1.64 µM). For the same compound, in data set [4], the “MIC A. baumannii ATCC 19606” value is 1 µg/mL (≈ 0.821 µM). Moreover, the “MIC E. coli ATCC 25922” value in data set [5] was 1 µg/mL (≈ 0.821 µM). This compound returned an IC50 at 72 h in data set [6] of 166 ± 15.7 µg/mL (≈ 137 µM).
As to `CC[C@H](C)CCCCC(=O)N[C@@H](CCN)C(=O)N[C@H](C(=O)N[C@@H](CCN)C(=O)N[C@H]1CCNC(=O)[C@H]([C@@H](C)O)NC(=O)[C@H](CCN)NC(=O)[C@H](CCN)NC(=O)[C@H](CC(C)C)NC(=O)[C@@H](Cc2ccc(C#N)cc2)NC(=O)[C@H](CCN)NC1=O)[C@@H](C)O` [Compound 13, (S)-6-methyloctanoyl-Dab-Thr-Dab-ring(4-10)[Dab-Dab-D-Phe(4-CN)-Lue-Dab-Dab-Thr]] (X2-[Dab]T[Dab][Dab][Dab][dPhe(4-CN)]L[Dab][Dab]T; lactam 4-C), the “MIC K. pneumoniae ATCC BAA-2146 (NDM-1)” value in data set [1] turned out to be 1 µg/mL (≈ 0.814 µM). Besides, the “MIC S. epidermidis ATCC 12228” value in data set [2] stood at 16 µg/mL (≈ 13 µM). Also, the “MIC P. aeruginosa ATCC 27853” value in data set [3] turned out to be 2 µg/mL (≈ 1.63 µM). The “MIC A. baumannii ATCC 19606” value in data set [4] is 0.25 µg/mL (≈ 0.203 µM). Also, in data set [5], the “MIC E. coli ATCC 25922” value came to 0.5 µg/mL (≈ 0.407 µM). In data set [6], this compound came in with an IC50 at 72 h of 186 ± 11.3 µg/mL (≈ 151 µM).
Turning to `CC[C@H](C)CCCCC(=O)N[C@@H](CCN)C(=O)N[C@H](C(=O)N[C@@H](CCN)C(=O)N[C@H]1CCNC(=O)[C@H]([C@@H](C)O)NC(=O)[C@H](CCN)NC(=O)[C@H](CCN)NC(=O)[C@H]([C@@H](C)O)NC(=O)[C@@H](CC(C)C)NC(=O)[C@H](CCN)NC1=O)[C@@H](C)O` [Compound 102, (S)-6-methyloctanoyl-Dab-Thr-Dab-ring(4-10)[Dab-Dab-D-Leu-Thr-Dab-Dab-Thr]] (X2-[Dab]T[Dab][Dab][Dab][dL]T[Dab][Dab]T; lactam 4-C), in data set [1], the “MIC K. pneumoniae ATCC BAA-2146 (NDM-1)” value was found to be 0.25 µg/mL (≈ 0.216 µM). In data set [2], the “MIC S. epidermidis ATCC 12228” value is over 128 µg/mL. Also, in data set [3], the “MIC P. aeruginosa ATCC 27853” value was 1 µg/mL (≈ 0.864 µM). Further, the “MIC A. baumannii ATCC 19606” value in data set [4] is 0.5 µg/mL (≈ 0.432 µM). Moreover, the “MIC E. coli ATCC 25922” value in data set [5] stood at 1 µg/mL (≈ 0.864 µM).
